What was measured:
Assay type in all cases: in vivo, guinea pig (Cavia porcellus)
[1] = tested on: normal eye growth in guinea pigs; assay: Eye drops on normal growth and emmetropization (no lens wear); settings: eye drops twice daily 9-16 days of age
Method: Two experimental protocols were employed (see Table 4). In Experiment 1, young guinea pigs wore a −6D lens on one eye from 5-12 days of age. They were randomly divided within each litter into two groups of 10 animals each, and received either a drop of L-Arginine (100 mM, 1.7%) in Saline (pH 7.4) or Saline alone (0.9%, pH 7.4) twice per day in the eye wearing the lens (Table 4). Drops were administered at the beginning of their light cycle and again approximately 6 hrs later in the middle of their day cycle. Lenses were removed during the drop administration which occurred under dim red light or in darkness. A single large drop was bathed on the cornea for 3 min in the lens-wearing eye in hand held animals. A clean lens was then reintroduced onto the eye. In Experiment 2, 14 guinea pigs were given eye drops in the same manner as in Experiment 1, but in both eyes and without any lens-wear, to determine the effect of the eye drops on normal eye growth. Animals received one drop of either 1.7% L-arginine (n=7) or atropine (Minims Atropine Sulphate 1%, Bausch & Lomb, preservative free, n=7) in one eye and saline (0.9%) in the other eye twice per day from 9-16 days of age.
In Experiment 1, at the end of the lens-wearing period, at 12 days of age just before the morning lights came on, both eyes were cyclopleged (1% Cyclopentolate—to paralyse the focussing muscles of the eye to a resting state) and 1.25 hours later, refractive error (RE) was measured. Animals were then anaesthetised with gaseous anaesthetic (1.5% isoflurane in oxygen) and eye length measures were taken in both eyes with high frequency ultrasound as described in Example 1. Biometry measures were also taken in the same manner before the lens wear period at 5 days of age. [No refractive measures were done at 5 days of age as cycloplegia could have interfered with the drug or lens response]. In Experiment 2, refractive error and eye length using ultrasound were measured in the same manner at 17 days of age, 24 hours after the previous drop was administered.
After cycloplegia was induced, refractive error was measured in each eye using an Autorefractor (Nidek AR-20, Japan). The spherical equivalent was calculated as the average of the sphere plus half the cylinder as is normal in clinical practice. All reported refractive errors are the spherical equivalent. Next, ocular length was measured using high frequency ultrasound (20 MHz) as previously described (McFadden et al, 2004). At least 20 traces were recorded for each eye and distances were averaged for at least 10 of these recordings. Peaks from the recordings were selected for the back of the cornea, the crystalline lens, and the vitreous chamber, and the layers at the back of the eye: the retina, choroid, and sclera. Ocular length was defined as the summed measurement from the front of the cornea to the back of the sclera.
Differences between the two eyes were analysed by a 2-tailed T-tests. The mean of calculated differences between the two eyes is referred to as relative myopia or relative ocular length and the difference in the change in ocular length in the treated compared to the untreated eye as relative growth.

[2] = tested on: normal growth of guinea pig eyes; assay: Intravitreal nωPLA on normal growth (animals without lenses); settings: 6 mM nωPLA right eye vs vehicle left eye, 3 days from P13, no lenses
Method: (§1) In this second experiment, thirty four guinea pigs were raised and measured as described in Example 1. To induce myopia, animals wore a −6D lens on one eye from P6-P13, which was then removed for 3 days to initiate recovery from myopia, exactly as described in Example 1, Group 3. During the recovery period, animals received daily intravitreal injections (10 μl into the eye which had worn the lens) of either 6 mM nωPLA (PLA, n=9) or vehicle (0.9% isotonic saline, pH 7.4, n=11) on postnatal days P13, P14, and P15. To study the effect of the drugs on normal growth, a further seven animals were raised for the same period without lenses, and from P13 received a vehicle injection into the left eye and a 6 mM nωPLA injection into the right eye for 3 days. The dosage level of 6 mM refers to the concentration of nωPLA in the syringe. (Considerably smaller doses would be experienced at the level of the retina). In all animals, refractive error and axial parameters were measured in both eyes before and after the recovery period, at P13 and P16. In lens-wearing animals, untreated fellow eyes served as matched controls and data is expressed as the relative difference between the lens-wearing eye and the fellow eye.

[3] = tested on: recovery from myopia in guinea pigs; assay: Intravitreal nωPLA during recovery from −6D lens-induced myopia
From the text: That is, if up-regulation of nNOS was causal in the myopic recovery response, injections of nωPLA would be expected to inhibit the ability of the myopic eye recover from myopia.
as §1

SMILES | ocular length on average ([1]; measured at 17 days, p=0.22 between groups) [mm] | mean refractive error, both eyes averaged ([1]; measured at 17 days, p=0.32 between groups) | effect on refractive error (drug eye vs saline eye) ([1]; no lens, 1.7% LA (p=0.69) or 1% Atropine (p=0.40)) | difference between the two eyes in ocular length (drug eye vs saline control eye) ([1]; LA p=0.39, ATR p=0.42) | elongation in animals without myopia [2] | relative myopia in animals without myopia [2] | difference between the eyes in refractive error after the three day recovery period ([3]; 6 mM nωPLA (in syringe) 10 μl intravitreal daily P13-P15, measured P16) [D] | ocular length relative to the saline group after the recovery period ([3]; 6 mM nωPLA intravitreal daily P13-P15, measured P16)
CN1[C@@H]2CC[C@H]1C[C@@H](OC(=O)C(CO)c1ccccc1)C2 (some centres unmarked) [Atropine] | 8.192 | +5.08 | no difference in mean refractive error between the two eyes | +20 μm | – | – | – | –
CCCN=C(N)NCCC[C@H](N)C(=O)O [nωPLA, N-w-propyl-L-arginine] | – | – | – | – | no influence | no influence | −5.4 | had longer eyes
